Data published in the supplement of paper PMC11368000.

Assays:
Conditions in all cases: exposure time: 90 min
1083 [1] = donor line of iPSC-derived cardiomyocytes; test: POD (EC10) for decrease in total cell number (cytotoxicity) vs vehicle; higher = less potent (higher point of departure)
Description: (§1)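 Human iPSC-derived cardiomyocytes from 16 donors were exposed for 90 min at 37 °C to each PFAS at 0.1, 1, 10 and 100 µM in 0.5% DMSO, 384-well plates. Kinetic Ca2+ flux (FLIPR) and Hoechst nuclei counts were normalised to vehicle wells and fitted with a hierarchical Bayesian Hill model to give donor-specific PODs: EC05 for beat-rate increase or decrease and for decay-to-rise ratio increase (QT proxy), EC95 for peak-frequency loss (asystole), EC10 for total cell number loss. 0.03 µM is the lower bound.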

11235 [2] = donor line of iPSC-derived cardiomyocytes; test: as above
Description: as §1

1368 [3] = donor line of iPSC-derived cardiomyocytes; test: as above
Description: as §1

1392 = donor line of iPSC-derived cardiomyocytes; test: as above
Description: as §1

1434 [4] = donor line of iPSC-derived cardiomyocytes; test: as above
Description: as §1

1535 = donor line of iPSC-derived cardiomyocytes; test: as above
Description: as §1

1565 = donor line of iPSC-derived cardiomyocytes; test: as above
Description: as §1

20084 [5] = donor line of iPSC-derived cardiomyocytes; test: as above
Description: as §1

30145 [6] = donor line of iPSC-derived cardiomyocytes; test: as above
Description: as §1

1083 [7] = test: POD (EC05) for decrease in beat frequency (negative chronotrope) vs vehicle; higher = less potent (higher point of departure)
Outline: (§2)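 Human iPSC-derived cardiomyocytes from 16 donors were cultured 14 days in gelatin-coated 384-well plates and loaded 2 h with fluorescent Ca2+ dye. They were then exposed for 90 min at 37 °C to 0.1, 1, 10 and 100 µM (final, 0.5% DMSO). Ca2+ flux was recorded on a FLIPR Tetra (8 frames/s, 100 s) before and after exposure. Donor-specific points of departure came from hierarchical Bayesian Hill fits to vehicle-normalised beat frequency, decay-to-rise ratio or peak frequency. Thresholds were 5% change, or 95% loss for peak frequency.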

1118 = donor line of iPSC-derived cardiomyocytes; test: as above
Outline: as §2

11235 [8] = test: as above
Outline: as §2

1309 = donor line of iPSC-derived cardiomyocytes; test: as above
Outline: as §2

1368 [9] = test: as above
Outline: as §2

1434 [10] = test: as above
Outline: as §2

1531 = donor line of iPSC-derived cardiomyocytes; test: as above
Outline: as §2

20032 = donor line of iPSC-derived cardiomyocytes; test: as above
Outline: as §2

20084 [11] = test: as above
Outline: as §2

30145 [12] = test: as above
Outline: as §2

30171 = donor line of iPSC-derived cardiomyocytes; test: as above
Outline: as §2

Measured: POD vs vehicle

O=S(=O)(O)CCC(F)(F)C(F)(F)C(F)(F)C(F)(F)C(F)(F)C(F)(F)F [6:2 Fluorotelomer sulfonic acid]
6.84 µM: 11235 [8]
25.1 µM: 1531
12.8 µM: 1118
24.5 µM: 30171
> 100 µM: all other assays above

O=C(O)C=CC(F)(C(F)(F)F)C(F)(F)F [3-(Perfluoroisopropyl)-2-propenoic_acid]
> 100 µM: all assays above

NS(=O)(=O)C(F)(F)C(F)(F)C(F)(F)C(F)(F)C(F)(F)C(F)(F)F [Perfluorohexanesulfonamide]
25.7 µM: 1083 [7]
1.33 µM: 1118
13.4 µM: 20032
20.6 µM: 1434 [4]
0.693 µM: 11235 [8]
6.44 µM: 1531
14.7 µM: 1309
34.9 µM: 30145 [12]
9.37 µM: 1434 [10]
7.7 µM: 30171
54.4 µM: 20084 [11]
> 100 µM: all other assays above

O=C(O)C(F)(F)C(F)(F)C(F)(F)C(F)(F)C(F)(F)C(F)(F)C(F)(F)C(F)(F)F [Perfluorononanoic_acid]
27.9 µM: 20032
40.2 µM: 1531
2.8 µM: 11235 [8]
11 µM: 1118
7.86 µM: 30171
35.2 µM: 1309
20 µM: 1434 [10]
> 100 µM: all other assays above

COC(=O)C(F)(F)C(F)(F)OC(F)(C(F)(F)F)C(F)(F)OC(F)=C(F)F (stereo not given) [Methyl_perfluoro(3-(1-ethenyloxypropan-2-yloxy)propanoate)]
> 100 µM: all assays above

O=C(O)C=C(C(F)(F)F)C(F)(F)F [3,3-Bis(trifluoromethyl)-2-propenoic_acid]
> 100 µM: all assays above

OCC(F)(F)C(F)(F)C(F)(F)C(F)(F)C(F)(F)C(F)F [Dodecafluoroheptanol]
85.3 µM: 11235 [2]
13.7 µM: 1368 [9]
18.3 µM: 20032
18.1 µM: 1434 [10]
19.4 µM: 1309 | 30145 [12]
19.3 µM: 20084 [11]
19.2 µM: 11235 [8]
15.3 µM: 1083 [7]
15.7 µM: 1531
20.1 µM: 30171
1.39 µM: 1118
> 100 µM: all other assays above

O=S(=O)(O)C(F)(F)C(F)(F)C(F)(F)C(F)(F)C(F)(F)C(F)(F)C(F)(F)C(F)(F)F [Perfluorooctanesulfonic_acid]
6.94 µM: 30171
13.3 µM: 1434 [10]
10.6 µM: 1118
0.581 µM: 11235 [8]
80.7 µM: 20084 [11]
59.1 µM: 1531
> 100 µM: all other assays above

O=C(O)C(F)(F)C(F)(F)OC(F)(F)F [Perfluoro-3-methoxypropanoic_acid]
> 100 µM: all assays above

OCC(F)(F)C(F)(F)C(F)(F)C(F)F [1H,1H,5H-Perfluoropentanol]
22.8 µM: 1118
35.1 µM: 20084 [11]
45.9 µM: 1531
> 100 µM: all other assays above

O=C(O)C(F)(F)C(F)(F)C(F)(F)C(F)(F)F [Perfluoropentanoic_acid]
> 100 µM: all assays above

O=C(CC(=O)C(F)(F)C(F)(F)F)C(F)(F)F [3H,3H-Perfluoro-2,4-hexanedione]
93.5 µM: 1392
24.9 µM: 11235 [8]
24.6 µM: 1118
21.9 µM: 1434 [4]
23.5 µM: 30171
22.6 µM: 1434 [10]
> 100 µM: all other assays above

O=S(=O)([O-])C(F)(F)C(F)(F)C(F)(F)C(F)(F)F.[K+] [Potassium_perfluorobutanesulfonate]
33.8 µM: 1118
67.8 µM: 11235 [8]
53.9 µM: 1434 [4]
> 100 µM: all other assays above

O=C(O)C(F)(F)C(F)(F)C(F)(F)F [Perfluorobutanoic_acid]
> 100 µM: all assays above

NC(=O)C(F)(F)C(F)(F)C(F)(F)C(F)(F)C(F)(F)C(F)(F)C(F)(F)F [Perfluorooctanamide]
> 100 µM: all assays above

NC(=O)C(F)(F)C(F)(F)C(F)(F)F [Heptafluorobutyramide]
> 100 µM: all assays above

OCC(O)CC(F)(F)C(F)(F)C(F)(F)C(F)(F)C(F)(F)C(F)(F)C(F)(F)C(F)(F)F (stereo not given) [1-(Perfluorofluorooctyl)propane-2,3-diol]
24.4 µM: 1083 [7]
0.258 µM: 1118
> 100 µM: all other assays above

N=C(N)C(F)(F)C(F)(F)C(F)(F)C(F)(F)C(F)(F)C(F)(F)C(F)(F)F [Perfluorooctanamidine]
0.128 µM: 1118
0.499 µM: 11235 [8]
> 100 µM: all other assays above

O=C(O)C(F)(F)C(F)(F)C(F)(F)OC(F)(F)F [Perfluoro(4-methoxybutanoic)_acid]
> 100 µM: all assays above
